For experiment [1], the system named is PARP. Briefly: PARP protein expression in breast cancer cell lines (Western blot). The class given is cell-based, human. The method, then:
Human breast cancer cell lines (MCF-7 and MDA-MB-231) were cultured by the same method as that of Example 2-1 except that they were treated with 0 mM, 2.5 mM, or 5.0 mM calcium lactate, and the cultured cancer cells were obtained. Then, changes in expression level depending on the concentration of calcium lactate was analyzed at the protein expression levels of PARP included therein (FIG. 8). In this case, the change in expression level was analyzed through a Western blot using the Image-J program with anti-PARP antibody as a primary antibody and anti-rabbit IgG conjugate as a secondary antibody, and GAPDH was used as internal control groups.
A general note: In western blotting, separated proteins are transferred to a membrane and probed.

Experiment [2] concerns human colorectal cancer cell lines (HCT-116 and HT-29). The experiment in a line: Pyruvate level in cancer cells (pyruvate assay kit). Particulars: 2.5 mM, 24 hours. The format is cell-based. As for the experimental part:
Each of human colorectal cancer cell lines (HCT-116 and HT-29) with the cell number of 5×10^5 cells was treated with 2.5 mM calcium lactate for 24 hours and the cells were disrupted by ultrasonication and filtered using a 10 kDa filter so as to obtain filtrate. The obtained filtrate was applied to a pyruvate assay kit (Abcam, Cambridge, Mass.) to measure the concentration of pyruvate included in the filtrate (FIG. 12).

The subject of a further experiment is VEGF. The experiment in a line: VEGF expression in tumor tissues of animal model. The class given is in vivo, Balb/c mice. The conditions noted are these: HT-29 tumor tissue. The method, then:
A colorectal cancer cell (HT-29) cultured in an RPMI1640 medium and then diluted with PBS was subcutaneously implanted into the flank of Balb/c mice. The mice were bred until the colorectal cancer cell grew to about 5 mm. Then, four groups were set up; a control group untreated with calcium lactate for 30 days, an experimental group 1 (peroral, P.O.) administered with 2.5 mM calcium lactate by oral administration, an experimental group 2 (intra tumor, I.T) injected with 2.5 mM calcium lactate around tumor, and an experimental group 3 (subcutaneous, S.C) subcutaneously injected with 25 mM calcium lactate (FIG. 27).
Colorectal cancer tissues were extracted from the mice of the control group or the experimental group 1 set up in Example 10-1, and expression levels of HIF-1α and VEGF involved in metastasis, invasion, and angiogenesis of tumor expressed therein were compared (FIG. 29). In this case, GAPDH was used as internal control groups.
Colorectal cancer tissues were extracted from the mice of the control group or the experimental group 2 set up in Example 10-1, and expression levels of HIF-1α and VEGF involved in metastasis, invasion, and angiogenesis of tumor therein were compared (FIG. 31). In this case, GAPDH was used as internal control groups.

For experiment [3], the system named is human colorectal cancer cell lines (HCT-116, HT-29, and DLD-1). The experiment in a line: Viability of colorectal cancer cell lines in plate with low adhesivity. The format is cell-based. The conditions noted are these: HCT-116, HT-29, DLD-1, 1.5 or 2.5 mM (untreated about 5%). The method, then:
Human colorectal cancer cell lines (HCT-116, HT-29, and DLD-1) were inoculated into a 6-well plate with low adhesivity and then cultured treating with various concentrations (0 mM, 1.5 mM, or 2.5 mM) of calcium lactate. Then, survival rates of the cells were compared (FIG. 26).

For experiment [4], the system named is PARP. Briefly: PARP protein expression in HCT-116 treated with calcium lactate, IS, CA alone or in combination. The format is cell-based, human. Particulars: 5 mM calcium lactate alone, 24 hours. As for the experimental part:
The protein expression levels of PARP expressed in the colorectal cancer cell line were compared (FIG. 9) after a human colorectal cancer cell line (HCT-116) was treated individually or in combination for 24 hours with 5 mM calcium lactate, 5-indane sulfornamide (IS) as an inhibitor of carbonic anhydrase, or cinnamic acid (CA) as an inhibitor of MCT-4 which is a pathway of lactate. In this case, an untreated cancer cell line was used as a control group.

In the case of `CC(O)C(=O)[O-].CC(O)C(=O)[O-].[Ca+2]` (stereo not shown) [calcium lactate], the “protein expression levels of PARP” value is “decreased” with PARP [1] (MCF-7 and MDA-MB-231, with increasing concentration (0, 2.5, 5.0 mM)); “decreased” in the experiment with PARP [4]. In the experiment with PARP [1] (MCF-7 cell line, 0, 2.5, 5.0 mM), the “protein expression levels of the truncated PARP” value was “increased”. Besides, the “pyruvate levels in the cells” value in experiment [2] is given as “sharply increased”. Also, the “expression of VEGF” value with VEGF (experimental group 1, 2.5 mM oral administration) is listed as “inhibited”; with VEGF (experimental group 2, 2.5 mM injected around tumor), “inhibited”. Besides, in experiment [3], the cell apoptosis rate result is reported as “about 90%”.

The values are drawn from patent US11413261B2, “Pharmaceutical composition for treating cancer comprising lactate metal salt” (METIMEDI PHARMACEUTICALS CO., LTD, priority 2014, dated 2022).
